Results on one compound are retold here after ChEMBL document CHEMBL5725854, “Inhibitors of protein methyltransferase DOT1L and methods of use thereof” (2018).

The target of this experiment is Histone-lysine N-methyltransferase, H3 lysine-79 specific (Homo sapiens) (UniProt Q8TEK3).
Sequence of Histone-lysine N-methyltransferase, H3 lysine-79 specific (Homo sapiens) (Q8TEK3 whole entry, looked up): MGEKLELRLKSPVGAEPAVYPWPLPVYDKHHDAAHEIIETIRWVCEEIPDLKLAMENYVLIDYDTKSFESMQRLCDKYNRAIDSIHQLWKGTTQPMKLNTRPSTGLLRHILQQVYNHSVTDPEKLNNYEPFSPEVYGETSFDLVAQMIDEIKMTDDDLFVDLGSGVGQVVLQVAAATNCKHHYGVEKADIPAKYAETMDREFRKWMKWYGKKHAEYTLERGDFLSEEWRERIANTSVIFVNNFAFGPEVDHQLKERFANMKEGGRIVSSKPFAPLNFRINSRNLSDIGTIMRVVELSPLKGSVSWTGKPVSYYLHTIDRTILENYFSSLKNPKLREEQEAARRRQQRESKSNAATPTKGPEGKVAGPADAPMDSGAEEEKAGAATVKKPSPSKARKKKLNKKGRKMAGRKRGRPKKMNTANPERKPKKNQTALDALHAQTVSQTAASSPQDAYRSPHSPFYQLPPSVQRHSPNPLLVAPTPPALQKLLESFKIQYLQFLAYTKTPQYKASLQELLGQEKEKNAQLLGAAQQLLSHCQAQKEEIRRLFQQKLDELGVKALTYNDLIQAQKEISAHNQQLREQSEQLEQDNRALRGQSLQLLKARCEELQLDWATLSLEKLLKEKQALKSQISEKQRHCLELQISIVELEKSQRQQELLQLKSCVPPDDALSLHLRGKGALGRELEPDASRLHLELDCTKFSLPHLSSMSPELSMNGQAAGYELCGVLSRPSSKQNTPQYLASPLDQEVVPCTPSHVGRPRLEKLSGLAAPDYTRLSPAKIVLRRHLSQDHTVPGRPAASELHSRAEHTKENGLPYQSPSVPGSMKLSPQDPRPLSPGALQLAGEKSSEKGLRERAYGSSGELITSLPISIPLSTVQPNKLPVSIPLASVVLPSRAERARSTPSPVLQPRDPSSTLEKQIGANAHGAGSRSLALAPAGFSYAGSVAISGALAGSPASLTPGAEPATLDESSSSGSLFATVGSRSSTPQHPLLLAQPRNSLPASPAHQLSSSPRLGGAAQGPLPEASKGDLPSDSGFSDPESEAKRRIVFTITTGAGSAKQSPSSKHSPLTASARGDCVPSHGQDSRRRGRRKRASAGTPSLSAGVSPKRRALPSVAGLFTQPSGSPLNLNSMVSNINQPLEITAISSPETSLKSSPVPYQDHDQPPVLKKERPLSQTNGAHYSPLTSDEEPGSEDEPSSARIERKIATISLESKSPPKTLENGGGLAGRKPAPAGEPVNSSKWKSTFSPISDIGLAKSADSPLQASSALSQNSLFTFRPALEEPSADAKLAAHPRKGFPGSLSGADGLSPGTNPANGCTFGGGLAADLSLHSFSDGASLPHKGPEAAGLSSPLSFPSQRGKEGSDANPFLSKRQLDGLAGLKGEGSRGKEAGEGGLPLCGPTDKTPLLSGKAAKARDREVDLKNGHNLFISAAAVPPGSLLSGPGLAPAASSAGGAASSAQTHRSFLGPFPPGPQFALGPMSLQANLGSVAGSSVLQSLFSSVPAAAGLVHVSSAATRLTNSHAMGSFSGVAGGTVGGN

The compound `Nc1ncnc2c1ncn2[C@@H]1O[C@H](CSCC[C@H](N)OC=O)[C@@H](O)[C@H]1O` gave a k off of 0.1 s⁻¹.
